Test results: patent US9328099B2, “Cyanomethylpyrazole carboxamides as janus kinase inhibitors” (Merck Sharp & Dohme Corp., priority 2011, dated 2016)
Where two headings read alike, the source gives them in different places.

What was measured:
[1] = target: JAK2 (Homo sapiens (Human), UniProt O60674); test: Jak Biochemical HTRF Assay, JAK2
Description: (§1) Jak Biochemical HTRF Assay Protocol
(§2) Subsequent reagent additions employed an Agilent Bravo.

[2] = target: JAK1 (Homo sapiens (Human), UniProt P23458); test: Jak Biochemical HTRF Assay, JAK1; conditions: HTRF biochemical assay, GST-tagged catalytic domain; top concentration tested […]; read-out: JAK1 IC50
Description: as §1, §2

[3] = HTRF biochemical assay, GST-tagged catalytic domain, top concentration tested […]

JAK1, sequence (P23458 875-1153): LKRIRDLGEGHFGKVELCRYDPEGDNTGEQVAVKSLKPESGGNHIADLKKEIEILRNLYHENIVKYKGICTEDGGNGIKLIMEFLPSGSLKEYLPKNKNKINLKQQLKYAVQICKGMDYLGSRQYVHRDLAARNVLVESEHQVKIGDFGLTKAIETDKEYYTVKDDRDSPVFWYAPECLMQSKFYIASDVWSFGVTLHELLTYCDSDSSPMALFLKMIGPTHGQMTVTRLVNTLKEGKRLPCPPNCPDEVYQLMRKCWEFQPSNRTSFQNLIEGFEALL
JAK2, sequence (O60674 849-1124): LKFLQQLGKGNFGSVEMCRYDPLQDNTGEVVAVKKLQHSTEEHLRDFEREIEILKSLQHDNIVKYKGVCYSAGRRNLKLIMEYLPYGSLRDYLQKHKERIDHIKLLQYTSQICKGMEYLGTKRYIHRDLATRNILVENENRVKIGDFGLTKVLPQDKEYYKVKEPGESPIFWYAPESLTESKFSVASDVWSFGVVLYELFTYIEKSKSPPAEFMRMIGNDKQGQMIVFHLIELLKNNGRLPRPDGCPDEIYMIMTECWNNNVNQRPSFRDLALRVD

IC50 [1, 3] [nM]	IC50 [2] [nM]	SMILES	IC50 [1] [nM]
1480	127	Cc1ccccc1-c1cccc(Nc2nn(C3(CC#N)CCN(C(=O)OC(C)(C)C)CC3)cc2C(N)=O)c1 [Example 15-7, tert-butyl 4-{4-carbamoyl-3-[(2′-methylbiphenyl-3-yl)amino]-1H-pyrazol-1-yl}-4-(cyanomethyl)piperidine-1-carboxylate]	–
318	12	CN1CCN(CCOC(=O)N2CCC(CC#N)(n3cc(C(N)=O)c(Nc4ccccc4)n3)CC2)CC1 [Example 30-43, 2-(4-methylpiperazin-1-yl)ethyl 4-[4-carbamoyl-3-(phenylamino)-1H-pyrazol-1-yl]-4-(cyanomethyl)piperidine-1-carboxylate]	–
97	2	N#CCC1(n2cc(C(N)=O)c(Nc3ccnc(F)c3)n2)CCN(Cc2ccc(F)cn2)CC1 [Example 22-36, 1-{4-(cyanomethyl)-1-[(5-fluoropyridin-2-yl)methyl]piperidin-4-yl}-3-[(2-fluoropyridin-4-yl)amino]-1H-pyrazole-4-carboxamide]	–
4	0.2	N#CCC1(n2cc(C(N)=O)c(Nc3cccnc3)n2)CCN(C(=O)OCC(F)(F)F)CC1 [Example 10-7, 2,2,2-trifluoroethyl 4-(4-carbamoyl-3-(pyridin-3-ylamino)-1H-pyrazol-1-yl)-4-(cyanomethyl)piperidine-1-carboxylate]	–
> 1500	86	Cn1ccc(CN2CCC(CC#N)(n3cc(C(N)=O)c(Nc4ccnc(F)c4)n3)CC2)n1 [Example 22-30, 1-{4-(cyanomethyl)-1-[(1-methyl-1H-pyrazol-3-yl)methyl]piperidin-4-yl}-3-[(2-fluoropyridin-4-yl)amino]-1H-pyrazole-4-carboxamide]	–
21	0.8	CC(C)(C)OC(=O)N1CCC(CC#N)(n2cc(C(N)=O)c(Nc3ccc(F)cc3)n2)CC1 [Example 9-3, tert-butyl 4-{4-carbamoyl-3-[(4-fluorophenyl)amino]-1H-pyrazol-1-yl}-4-(cyanomethyl)piperidine-1-carboxylate]	–
12	0.3	C[C@@H](OC(=O)N1CCC(CC#N)(n2cc(C(N)=O)c(Nc3ccnc(F)c3)n2)CC1)C1CC1 [Example 30-78, (1R)-1-cyclopropylethyl 4-{4-carbamoyl-3-[(2-fluoropyridin-4-yl)amino]-1H-pyrazol-1-yl}-4-(cyanomethyl)piperidine-1-carboxylate]	–
178	6	Cc1cc(Nc2nn(C3(CC#N)CCN(C(=O)OC(C)(C)C)CC3)cc2C(N)=O)nc(C)n1 [Example 13-10, tert-butyl 4-(4-carbamoyl-3-(2,6-dimethylpyrimidin-4-ylamino)-1H-pyrazol-1-yl)-4-(cyanomethyl)piperidine-1-carboxylate]	–
25	1	N#CCC1(n2cc(C(N)=O)c(Nc3ccc(F)cc3)n2)CCN(Cc2cnccn2)CC1 [Example 22-52, 1-[4-(cyanomethyl)-1-(pyrazin-2-ylmethyl)piperidin-4-yl]-3-[(4-fluorophenyl)amino]-1H-pyrazole-4-carboxamide]	–
37	–	N#CCC1(n2cc(C(N)=O)c(Nc3ccc(F)cc3)n2)CCN(C(=O)OC2CCOC2)CC1 (stereo not drawn) [Example 30-46, tetrahydrofuran-3-yl 4-{4-carbamoyl-3-[(4-fluorophenyl)amino]-1H-pyrazol-1-yl}-4-(cyanomethyl)piperidine-1-carboxylate]	–
62	–	N#CCC1(n2cc(C(N)=O)c(Nc3ccc(F)cc3)n2)CCN(C(=O)OC2CCOC2)CC1 (single isomer, unassigned) [Example 50-2, (3S or 3R)-tetrahydrofuran-3-yl4-{4-carbamoyl-3-[(4-fluorophenyl)amino]-1H-pyrazol-1-yl}-4-(cyanomethyl)piperidine-1-carboxylate]	–
47	–	N#CCC1(n2cc(C(N)=O)c(Nc3ccc(F)cc3)n2)CCN(C(=O)OC2CCOC2)CC1 (single isomer, unassigned) [Example 50-1, (3S or 3R)-tetrahydrofuran-3-yl 4-{4-carbamoyl-3-[(4-fluorophenyl)amino]-1H-pyrazol-1-yl}-4-(cyanomethyl)piperidine-1-carboxylate]	–

The next lines start with the compound.

SMILES	IC50 [1, 3] [nM]	IC50 [2] [nM]	IC50 [1] [nM]
COc1cc(N2CCC(CC#N)(n3cc(C(N)=O)c(Nc4ccc(F)cc4)n3)CC2)ccc1F [Example 3-11, 1-[4-(cyanomethyl)-1-(4-fluoro-3-methoxyphenyl)piperidin-4-yl]-3-[(4-fluorophenyl)amino]-1H-pyrazole-4-carboxamide]	74	4	–
N#CCC1(n2cc(C(N)=O)c(Nc3ccccc3)n2)CN(C(=O)OCc2ccccc2)C1 [Example 30-53, benzyl 3-[4-carbamoyl-3-(phenylamino)1H-pyrazol-1-yl]-3-(cyanomethyl)azetidine-1-carboxylate]	262	11	–
N#CCC1(n2cc(C(N)=O)c(Nc3ccc(F)cc3)n2)CCC(NC2CCOCC2)CC1 (stereo not drawn) [Example 40-5, Cis or trans 1-[1-(cyanomethyl)-4-(tetrahydro-2H-pyran-4-ylamino)cyclohexyl]-3-[(4-fluorophenyl)amino]-1H-pyrazole-4-carboxamide]	> 1500	449	–
N#CCC1(n2cc(C(N)=O)c(Nc3ccccc3)n2)CN(C(=O)OC2CCCCC2)C1 [Example 30-57, cyclohexyl 3-[4-carbamoyl-3-(phenylamino)-1H-pyrazol-1-yl]-3-(cyanomethyl)azetidine-1-carboxylate]	466	14	–
N#CCC1(n2cc(C(N)=O)c(Nc3ccc(S(=O)(=O)C(F)F)cc3)n2)CCC(Nc2cccnc2)CC1 (stereo not drawn) [Example 40-9, Cis or trans 1-[1-(cyanomethyl)-4-(pyridin-3-ylamino)cyclohexyl]-3-({4-[(difluoromethyl)sulfonyl]phenyl}amino)-1H-pyrazole-4-carboxamide]	–	–	352
N#CCC1(n2cc(C(N)=O)c(Nc3ccc(S(=O)(=O)C(F)F)cc3)n2)CCC(Nc2ccc(O)cc2)CC1 (stereo not drawn) [Example 40-7, Cis or trans 1-{1-(cyanomethyl)-4-[(4-hydroxyphenyl)amino]cyclohexyl}-3-({4-[(difluoromethyl)sulfonyl]phenyl}amino)-1H-pyrazole-4-carboxamide]	–	–	36
N#CCC1(n2cc(C(N)=O)c(Nc3ccc(F)cc3)n2)CCC(NC2CCOCC2)CC1 (stereo not drawn) [Example 40-65, Cis or trans 1-[1-(cyanomethyl)-4-(tetrahydro-2H-pyran-4-ylamino)cyclohexyl]-3-[(4-fluorophenyl)amino]-1H-pyrazole-4-carboxamide]	–	–	129
C[C@H]1CN(C(=O)OC(C)(C)C)CC[C@]1(CC#N)n1cc(C(N)=O)c(Nc2ccccc2)n1 (single isomer, unassigned) [Example 48-2, tert-Butyl (3S,4R or 3R,4S)-4-[4-carbamoyl-3-(phenylamino)-1H-pyrazol-1-yl]-4-(cyanomethyl)-3-methylpiperidine-1-carboxylate]	487	–	–
N#CCC1(n2cc(C(N)=O)c(Nc3ccc(S(=O)(=O)C(F)F)cc3)n2)CCC(Nc2ccccc2O)CC1 (stereo not drawn) [Example 40-32, Cis or trans 1-{1-(cyanomethyl)-4-[(2-hydroxyphenyl)amino]cyclohexyl}-3-({4-[(difluoromethyl)sulfonyl]phenyl}amino)-1H-pyrazole-4-carboxamide]	–	–	177
C[C@H]1CN(C(=O)OC(C)(C)C)CC[C@]1(CC#N)n1cc(C(N)=O)c(Nc2ccccc2)n1 (single isomer, unassigned) [Example 48-1, tert-Butyl (3S,4R or 3R,4S)-4-[4-carbamoyl-3-(phenylamino)-1H-pyrazol-1-yl]-4-(cyanomethyl)-3-methylpiperidine-1-carboxylate]	24	–	–
COC(=O)C(C)(C)OC(=O)N1CCC(CC#N)(n2cc(C(N)=O)c(Nc3ccc(F)cc3)n2)CC1 [Example 29-A, 1-Methoxy-2-methyl-1-oxopropan-2-yl4-{4-carbamoyl-3-[(4-fluorophenyl)amino]-1H-pyrazol-1-yl}-4-(cyanomethyl)piperidine-1-carboxylate]	–	–	40
N#CCC1(n2cc(C(N)=O)c(Nc3ccnc(F)c3)n2)CCC(NC2CCOCC2)CC1 (stereo not drawn) [Example 40-38, Cis or trans 1-[1-(cyanomethyl)-4-(tetrahydro-2H-pyran-4-ylamino)cyclohexyl]-3-[(2-fluoropyridin-4-yl)amino]-1H-pyrazole-4-carboxamide]	–	–	103
N#CC[C@]1(n2cc(C(N)=O)c(Nc3ccccc3)n2)CC[C@@H](C(=O)NCC(F)(F)F)CC1 [Example 45-1, cis or trans 1-{1-(cyanomethyl)-4-[(2,2,2-trifluoroethyl)carbamoyl]cyclohexyl}-3-(phenylamino)-1H-pyrazole-4-carboxamide]	–	–	301
N#CCC1(n2cc(C(N)=O)c(Nc3ccccc3)n2)CCOCC1 [Example 6-5, 1-[4-(cyanomethyl)tetrahydro-2H-pyran-4-yl]-3-(phenylamino)-1H-pyrazole-4-carboxamide]	133	–	–
N#CCC1(n2cc(C(N)=O)c(Nc3ccc(S(=O)(=O)C(F)F)cc3)n2)CCC(Nc2cccc(O)c2)CC1 (stereo not drawn) [Example 40-14, Cis or trans 1-{1-(cyanomethyl)-4-[(3-hydroxyphenyl)amino]cyclohexyl}-3-({4-[(difluoromethyl)sulfonyl]phenyl}amino)-1H-pyrazole-4-carboxamide]	–	–	65
N#CCC1(n2cc(C(N)=O)c(Nc3ccc(F)cc3)n2)CCC(=O)CC1 [Example 40-1A, 1-(1-(Cyanomethyl)-4-oxocyclohexyl)-3-((4-fluorophenyl)amino)-1H-pyrazole-4-carboxamide]	39	–	–
C[C@H]1CN(C(=O)OC(C)(C)C)CC[C@]1(CC#N)n1cc(C(N)=O)c(Nc2ccccc2)n1 (racemic) [Example 2-9, tert-Butyl (3S,4R and 3R,4S)-4-[4-carbamoyl-3-(phenylamino)-1H-pyrazol-1-yl]-4-(cyanomethyl)-3-methylpiperidine-1-carboxylate]	21	–	–
